{"source": "patent US20090148445A1", "about": "“METHODS OF SENSITIZING CANCER TO THERAPY-INDUCED CYTOTOXICITY” (The Regents of the University of California, priority 2005, published 2009)", "key": {"[1]": {"test_system": "B-NHL Daudi cell line (wild type)", "test": "Sensitization to CDDP-induced apoptosis, propidium iodide flow cytometry, Daudi", "conditions": "for apoptosis by combination treatment with CDDP: inhibitor 1-15 nM 1 h"}, "[2]": {"test_system": "rituximab sensitive and rituximab resistant B-NHL tumor cells", "test": "Sensitization of B-NHL tumor cells to drug-induced apoptosis (conclusions)", "format": "cell-based", "protocol": "1) Salinosporamide A at very low concentrations (0.1-10 nM) sensitizes both rituximab sensitive and rituximab resistant B-NHL tumor cells to drug-induced apoptosis."}, "[3]": {"test_system": "rituximab resistant Daudi RR1 cell line", "test": "Sensitization to CDDP-induced apoptosis, propidium iodide flow cytometry, Daudi RR1", "format": "cell-based", "conditions": "for potentiation of apoptosis in combination with CDDP: inhibitor 1 h", "protocol": "The rituximab resistant clone Daudi-RR1 was treated as in FIG. 1 above.\nFIG. 4A compares the effect of Salinosporamide A and bortezomib on CDDP-induced apoptosis in Daudi RR1 cells.\nFIG. 4B compares the effect of Salinosporamide A and DHMEQ on CDDP-induced apoptosis in Daudi RR1 cells.\nRituximab (chimeric anti-CD20 monoclonal antibody) has been used in the treatment of Non-Hodgkin's Lymphoma alone or in combination with chemotherapy. The clinical response has been very encouraging; however, some patients are initially unresponsive or develop resistance following treatment. In order to investigate the mechanism of rituximab resistance we have developed in our laboratory rituximab resistant clones from B-NHL cell lines. We have selected certain clones for further analysis of the underlying mechanism of resistance. […] We investigated whether Salinosporamide A can sensitize Daudi RR1 to CDDP-induced apoptosis.\nSimilar studies were performed as above in a) with Daudi RR1 cells."}, "[4]": {"test_system": "TRAIL-resistant Ramos cells", "test": "Sensitization to TRAIL-induced apoptosis", "format": "cell-based"}, "YY1 [5]": {"test_system": "YY1", "test": "YY1 transcription by RT-PCR", "format": "cell-based", "excerpt": "(§1) The expression of β-actin was used as a control."}, "Bcl-xL": {"test_system": "Bcl-xL", "test": "Bcl-xL expression by western", "format": "cell-based", "protocol": "Bcl-xL expression was assessed by western."}, "[6]": {"test_system": "Salinosporamide A resistant Daudi cells", "test": "Rituximab-mediated sensitization to Salinosporamide A-induced apoptosis, Daudi", "format": "cell-based", "conditions": "rituximab 20 ug/ml 1 h, then Salinosporamide A 10 nM 20 h"}, "pleiotrophin (PTN)": {"test_system": "pleiotrophin (PTN)", "test": "Pleiotrophin (PTN) expression", "format": "cell-based", "conditions": "5 nM", "excerpt": "PTN has been reported to be elevated in tumor cells and in the circulation of cancer patients and is of prognostic significance. In addition, inhibition of PTN contributes to the sensitizing effect of Salinosporamide A. PTN is also a target for therapeutic intervention."}, "[7]": {"test_system": "60 human tumor cell lines", "conditions": "NCI screening panels of 60 human tumor cell lines; cited from earlier work"}, "DR5 [8]": {"test_system": "DR5", "test": "DR5 surface expression by flow cytometry, Ramos", "format": "cell-based"}, "DR5 [9]": {"test_system": "DR5", "test": "DR5 expression, rituximab resistant Ramos RR1", "format": "cell-based", "conditions": "rituximab resistant Ramos cells RR1"}, "DR5 [10]": {"test_system": "DR5", "test": "DR5 expression by Western, Ramos", "format": "cell-based"}, "PTEN": {"test_system": "PTEN", "test": "PTEN expression by western", "format": "cell-based", "conditions": "FIG. 15", "excerpt": "Further, most resistant tumor cells express low levels of PTEN, and PTEN is a target for therapeutic intervention, as well as a biomarker"}, "multiple myeloma cells": {"test_system": "multiple myeloma cells", "conditions": "multiple myeloma cells resistant to conventional and bortezomib therapies; cited from earlier work"}, "[11]": {"conditions": "administered orally or intravenously; cited from earlier work"}, "caspase 9": {"test_system": "caspase 9", "test": "Caspase 9 activation by western (pro-caspase 9 level) in Ramos cells", "format": "cell-based"}, "HL60": {"test_system": "HL60", "conditions": "drug sensitive HL60; equal doses as for HL60MX2; cited from earlier work"}, "B-NHL Ramos cell line": {"test_system": "B-NHL Ramos cell line", "test": "Sensitization to CDDP-induced apoptosis, propidium iodide flow cytometry, Ramos", "protocol": "The percent apoptotic cells was recorded. […] The treatment were performed in duplicates."}, "HL60MX2": {"test_system": "HL60MX2", "conditions": "drug resistant HL60MX2; equal doses as for HL60; cited from earlier work"}, "YY1 [12]": {"test_system": "YY1", "test": "YY1 expression by western blot in Ramos cells", "format": "cell-based", "conditions": "various concentrations, 24 hour exposure", "excerpt": "as §1, §1"}, "[13]": {"test_system": "Raf-kinase inhibitor protein (RKIP)", "test": "RKIP expression by western blot in Ramos cells", "format": "cell-based", "protocol": "(§2) Ramos cells were treated with 10 nM Salinosporamide A for various periods of time, and total cell lysates were examined for the expression of RKIP by western blot analysis. The expression of β-actin was used as a control.\nas §2, with “RKIP is a member of the phosphotidylethanolamine-binding protein (PEBP) family. Ramos” for “Ramos”"}, "[14]": {"conditions": "DHMEQ (μM) or Salinosporamide A (nM) 1 h, then CDDP 10 μg/ml 20 h"}, "[15]": {"conditions": "Daudi wild type, then CDDP 10 μg/ml 20 h"}, "[16]": {"conditions": "inhibitor 1 h, then CDDP 15 μg/ml 20 h"}}, "note": "Like-named read-outs stand apart in the source and are kept apart here."}
{"molecule": "O=C(NC1=CC(=O)[C@H]2O[C@H]2[C@H]1O)c1ccccc1O", "note": "[DHMEQ, reference compound]", "values": [{"measurement": "higher concentration used with DHMEQ as compared to Salinosporamide A for similar sensitization", "setting": "[1]; Daudi wild type, CDDP 10 μg/ml", "value": "4,000 fold"}, {"measurement": "sensitization to CDDP-induced apoptosis", "setting": "[1]; Daudi, DHMEQ 1-65 μM 1 h, then CDDP 10 μg/ml 20 h", "value": "can sensitize Daudi cells to CDDP-induced apoptosis"}, {"measurement": "increase in concentration required for sensitization as compared to Salinosporamide A", "setting": "[2]; B-NHL tumor cells, drug-induced apoptosis", "value": "4,000 fold"}, {"measurement": "higher concentration used with DHMEQ as compared to Salinosporamide A for similar sensitization", "setting": "[3]; CDDP 10 μg/ml", "value": "4,000 fold"}, {"measurement": "sensitization to CDDP-induced apoptosis", "setting": "[3]; [14]", "value": "sensitize cells to CDDP-induced apoptosis"}]}
{"molecule": "C[C@@]12OC(=O)[C@]1([C@@H](O)[C@@H]1C=CCCC1)NC(=O)[C@@H]2CCCl", "note": "[Salinosporamide A]", "values": [{"measurement": "apoptosis by combination treatment with CDDP", "setting": "[1]; [15]", "value": "significant apoptosis by the combination treatment at all concentrations of inhibitors used"}, {"measurement": "cytotoxicity of combination treatment with CDDP", "setting": "[1]; Daudi, treated as Ramos, function of concentration", "value": "significant cytotoxicity was observed"}, {"measurement": "sensitization to TRAIL-induced apoptosis", "setting": "[4]", "value": "sensitizes TRAIL-resistant Ramos cells to TRAIL-induced apoptosis"}, {"measurement": "YY1 transcription", "setting": "YY1 [5]", "value": "inhibits YY1 transcription"}, {"measurement": "concentration inhibiting Bcl-xL expression", "setting": "Bcl-xL", "value": "< 2.5", "unit": "nM"}, {"measurement": "apoptosis by combination of rituximab and Salinosporamide A", "setting": "[6]", "value": "significant apoptosis and synergy was achieved"}, {"measurement": "pleiotrophin (PTN) expression", "setting": "pleiotrophin (PTN)", "value": "inhibits the growth factor pleiotrophin (PTN) expression significantly"}, {"measurement": "mean growth inhibition", "setting": "[7]", "value": "less than 10 nM"}, {"measurement": "DR5 surface expression", "setting": "DR5 [8]", "value": "upregulated DR5 surface expression"}, {"measurement": "DR5 expression", "setting": "DR5 [9]", "value": "upregulates DR5 expression"}, {"measurement": "concentrations that sensitize to drug-induced apoptosis", "setting": "[2]; rituximab sensitive and rituximab resistant B-NHL tumor cells", "value": "0.1 to 10", "unit": "nM"}, {"measurement": "DR5 expression", "setting": "DR5 [10]", "value": "upregulates DR5 expression"}, {"measurement": "PTEN expression", "setting": "PTEN; Salinosporamide A alone", "value": "induces the expression"}, {"measurement": "PTEN expression in combination with rituximab", "setting": "PTEN; combination with rituximab", "value": "more was expressed"}, {"measurement": "cytotoxic effects of sole treatment", "setting": "Ramos B-NHL cells; Ramos, no rituximab, 0.1, 1.0, 10 nM overnight", "value": "no detectable cytotoxic effects"}, {"measurement": "apoptosis by combination treatment with rituximab", "setting": "Ramos B-NHL cells; Ramos, rituximab 20 ug/ml 12-18 h, then Salinosporamide A 1-10 nM 20 h", "value": "significant apoptosis"}, {"measurement": "rituximab sensitization to Salinosporamide A-induced apoptosis compared with ADR", "setting": "Ramos B-NHL cells; Ramos, rituximab 20 μg/ml 18 h, ADR 5 μg/ml", "value": "greater than that achieved with ADR"}, {"measurement": "apoptosis in rituximab pre-treated tumor cells", "setting": "Ramos B-NHL cells; Ramos, rituximab 20 μg/ml 18 h, Salinosporamide A 1 nM", "value": "significant apoptosis"}, {"measurement": "apoptosis in rituximab pre-treated tumor cells", "setting": "Ramos B-NHL cells; Ramos, rituximab 20 μg/ml 18 h, Salinosporamide A 10 nM", "value": "less effective due to cell loss"}, {"measurement": "concentration at which synergistic activity with rituximab was detected", "setting": "Ramos B-NHL cells; Ramos, rituximab 20 ug/ml pre-treatment", "value": ">= 1 nM"}, {"measurement": "rituximab sensitization to Salinosporamide A-induced apoptosis compared with CDDP", "setting": "Ramos B-NHL cells; rituximab-mediated chemosensitization, FIG. 6", "value": "higher level than CDDP"}, {"measurement": "induction of apoptosis", "setting": "multiple myeloma cells", "value": "induces apoptosis"}, {"measurement": "anti-tumor effects in vivo", "setting": "[11]", "value": "exerted anti-tumor effects"}, {"measurement": "caspase 9 activation", "setting": "caspase 9; Salinosporamide A alone", "value": "activates caspase 9"}, {"measurement": "caspase 9 activation in combination with CDDP", "setting": "caspase 9; combination with CDDP", "value": "more caspase 9 was activated"}, {"measurement": "cytotoxicity", "setting": "HL60", "value": "cytotoxic"}, {"measurement": "cytotoxicity of Salinosporamide A treatment alone", "setting": "B-NHL Ramos cell line; 1 and 10 nM, no CDDP", "value": "modest cytotoxicity"}, {"measurement": "concentration at which potentiation of cytotoxicity was mostly observed (significant synergistic cytotoxicity)", "setting": "B-NHL Ramos cell line; [16]", "value": 0.1, "unit": "nM"}, {"measurement": "cytotoxicity of combination treatment with CDDP", "setting": "B-NHL Ramos cell line; [16]", "value": "significant potentiation of cytotoxicity"}, {"measurement": "cytotoxicity", "setting": "HL60MX2", "value": "cytotoxic"}, {"measurement": "sensitization to CDDP-induced apoptosis", "setting": "[3]; [14]", "value": "sensitize cells to CDDP-induced apoptosis"}, {"measurement": "potentiation of apoptosis in combination with CDDP", "setting": "[3]; then CDDP 10 μg/ml 20 h", "value": "significant potentiation of apoptosis"}, {"measurement": "sensitization to CDDP-induced apoptosis", "setting": "[3]; treated as Ramos, function of concentration", "value": "significantly sensitized"}, {"measurement": "levels of YY1 protein", "setting": "YY1 [12]", "value": "decrease in the levels of YY1 protein"}, {"measurement": "levels of RKIP protein", "setting": "[13]; Ramos, 10 nM, 15 minute exposure", "value": "increase in the levels of RKIP protein"}, {"measurement": "RKIP expression", "setting": "[13]; Salinosporamide A alone, FIG. 15", "value": "induces the expression"}, {"measurement": "RKIP expression in combination with rituximab", "setting": "[13]; combination with rituximab, FIG. 15", "value": "more was expressed"}]}
{"molecule": "CC(C)C[C@H](NC(=O)[C@H](Cc1ccccc1)NC(=O)c1cnccn1)B(O)O", "note": "[bortezomib, reference compound]", "values": [{"measurement": "apoptosis by combination treatment with CDDP", "setting": "[1]; [15]", "value": "significant apoptosis by the combination treatment at all concentrations of inhibitors used"}, {"measurement": "potentiation of apoptosis in combination with CDDP", "setting": "[3]; then CDDP 10 μg/ml 20 h", "value": "significant potentiation of apoptosis"}]}
{"molecule": "rituximab [reference compound]", "values": [{"measurement": "sensitization of tumor cells to Salinosporamide A-induced apoptosis", "setting": "Ramos B-NHL cells; rituximab 20 ug/ml pre-treatment", "value": "can sensitize drug-resistant tumor cells to Salinosporamide A induced apoptosis"}]}
